Legend:
[1] = for surface tension liquid-gas: Capillary rise; for viscosity / mass density: Liquid; for viscosity: Falling or rolling sphere viscometry; for mass density: Vibrating tube method
[2] = refractive index (Na D-line) (dimensionless); conditions: 101.33 kPa, Liquid, Standard Abbe refractometry
[3] = refractive index (Na D-line) (dimensionless); xn = mol fraction of the nth substance listed; conditions: Liquid, Standard Abbe refractometry
[4] = xn = mol fraction of the nth substance listed; conditions: for surface tension liquid-gas: Capillary rise; for viscosity / mass density: Liquid; for viscosity: Falling or rolling sphere viscometry; for mass density: Vibrating tube method

OCc1ccccc1 [benzenemethanol]
Conditions	refractive index, 293.15 K	refractive index, 303.15 K	refractive index, 313.15 K	refractive index, 323.15 K	surface tension liquid-gas, 293.15 K [mN/m]	surface tension liquid-gas, 303.15 K [mN/m]	surface tension liquid-gas, 313.15 K [mN/m]	surface tension liquid-gas, 323.15 K [mN/m]
[1]	–	–	–	–	39.2	38.1	37.2	36.3
[2]	1.54049	1.53635	1.53215	1.52796	–	–	–	–

[1]
Conditions	mass density, 293.15 K [kg/m3]	mass density, 303.15 K [kg/m3]	mass density, 313.15 K [kg/m3]	mass density, 323.15 K [kg/m3]	viscosity, 293.15 K [mPa·s]	viscosity, 303.15 K [mPa·s]	viscosity, 313.15 K [mPa·s]	viscosity, 323.15 K [mPa·s]
100.8 kPa	1045.44	1037.45	1029.61	1021.5	6.287	4.579	3.335	2.545
101 kPa	1045.44	1037.45	1029.61	1021.5	6.287	4.579	3.335	2.545

OCc1ccccc1 [benzenemethanol] + CC(=O)OCc1ccccc1
101 kPa, x2 = 0
Conditions	mass density, [4] [kg/m3]	refractive index, [3]	viscosity, [4] [mPa·s]
293.15 K	1045.44	1.54049	6.287
303.15 K	1037.45	1.53635	4.579
313.15 K	1029.61	1.53215	3.335
323.15 K	1021.5	1.52796	2.545

[4], x2 = 0
Conditions	surface tension liquid-gas [mN/m]
293.15 K	39.2
303.15 K	38.1
313.15 K	37.2
323.15 K	36.3

CC(=O)OCc1ccccc1 [benzyl ethanoate]
Conditions	refractive index, 293.15 K	refractive index, 303.15 K	refractive index, 313.15 K	refractive index, 323.15 K	surface tension liquid-gas, 293.15 K [mN/m]	surface tension liquid-gas, 303.15 K [mN/m]	surface tension liquid-gas, 313.15 K [mN/m]	surface tension liquid-gas, 323.15 K [mN/m]
[1]	–	–	–	–	37.3	35.6	34.3	33.2
[2]	1.50245	1.49776	1.49309	1.48834	–	–	–	–

[1]
Conditions	mass density, 293.15 K [kg/m3]	mass density, 303.15 K [kg/m3]	mass density, 313.15 K [kg/m3]	mass density, 323.15 K [kg/m3]	viscosity, 293.15 K [mPa·s]	viscosity, 303.15 K [mPa·s]	viscosity, 313.15 K [mPa·s]	viscosity, 323.15 K [mPa·s]
100.8 kPa	1055.81	1046.74	1037.42	1027.51	2.324	1.836	1.474	1.256
101 kPa	1055.81	1046.74	1037.42	1027.51	2.324	1.836	1.474	1.256

CCO [ethanol]
Conditions	refractive index, 293.15 K	refractive index, 303.15 K	refractive index, 313.15 K	refractive index, 323.15 K	surface tension liquid-gas, 293.15 K [mN/m]	surface tension liquid-gas, 303.15 K [mN/m]	surface tension liquid-gas, 313.15 K [mN/m]	surface tension liquid-gas, 323.15 K [mN/m]
[1]	–	–	–	–	22.3	21.4	20.6	19.4
[2]	1.36137	1.35712	1.35292	1.34873	–	–	–	–

[1], 100.8 kPa
Conditions	mass density [kg/m3]	viscosity [mPa·s]
293.15 K	789.1	1.183
303.15 K	780.76	0.98
313.15 K	771.99	0.822
323.15 K	763.03	0.698

CCO [ethanol] + CC(=O)OCc1ccccc1
100.8 kPa, x1 = 1
Conditions	mass density, [4] [kg/m3]	refractive index, [3]	viscosity, [4] [mPa·s]
293.15 K	789.1	1.36137	1.183
303.15 K	780.76	1.35712	0.98
313.15 K	771.99	1.35292	0.822
323.15 K	763.03	1.34873	0.698

[4], x1 = 1
Conditions	surface tension liquid-gas [mN/m]
293.15 K	22.3
303.15 K	21.4
313.15 K	20.6
323.15 K	19.4

CCO [ethanol] + OCc1ccccc1
100.8 kPa, x1 = 1
Conditions	mass density, [4] [kg/m3]	refractive index, [3]	viscosity, [4] [mPa·s]
293.15 K	789.1	1.36137	1.183
303.15 K	780.76	1.35712	0.98
313.15 K	771.99	1.35292	0.822
323.15 K	763.03	1.34873	0.698

[4], x1 = 1
Conditions	surface tension liquid-gas [mN/m]
293.15 K	22.3
303.15 K	21.4
313.15 K	20.6
323.15 K	19.4

Source: the NIST ThermoML archive (doi:10.1021/je201009c)
